Laboratory results reported in ChEMBL document CHEMBL5335848, “Penicilloneines A and B, Quinolone-Citrinin Hybrids from a Starfish-Derived Penicillium sp” (2024).
In brackets after ≈: the same amount, converted by molar mass. Activity calls are given as the source filed them. The calls are words filed in the database; no cut-off is given here.

How the values were obtained:
[1] = tested on: Colletotrichum gloeosporioides; assay: Antifungal activity against Colletotrichum gloeosporioides assessed as inhibition of mycelial growth incubated for 3 days by cross-bonded method; format: functional; details: for Activity: time 3.0 day; for LC50: 72 h, time 3 day
[2] = tested on: Colletotrichum gloeosporioides; assay: Antifungal activity against Colletotrichum gloeosporioides assessed as induction of morphological changes by measuring appearance of vacuolizations at 5 mg/L incubated for 24 hrs by TEM analysis; format: functional, organism-based
[3] = tested on: Colletotrichum gloeosporioides; assay: Antifungal activity against Colletotrichum gloeosporioides assessed as disruption of cell wall at 5 mg/L incubated for 24 hrs by TEM analysis; format: functional, organism-based
[4] = tested on: Colletotrichum gloeosporioides; assay: Antifungal activity against Colletotrichum gloeosporioides assessed as fold increase in putative hydrolase encoding gene expression by qRT-PCR analysis relative to control; format: functional
[5] = tested on: Colletotrichum gloeosporioides; assay: Antifungal activity against Colletotrichum gloeosporioides assessed as fold increase in leucine aminopeptidase encoding gene expression by qRT-PCR analysis relative to control; format: functional
[6] = tested on: Colletotrichum gloeosporioides; assay: Antifungal activity against Colletotrichum gloeosporioides assessed as increase in acetylcholinesterase encoding gene expression by RNA-seq analysis; format: functional, organism-based
[7] = tested on: Colletotrichum gloeosporioides; assay: Antifungal activity against Colletotrichum gloeosporioides assessed as induction of morphological changes by measuring aggregation of particles into clusters in cytoplasm at 5 mg/L incubated for 24 hrs by TEM analysis; format: functional, organism-based
[8] = tested on: Colletotrichum gloeosporioides; assay: Antifungal activity against Colletotrichum gloeosporioides assessed as induction of morphological changes by measuring appearance of cavities at 5 mg/L incubated for 24 hrs by TEM analysis; format: functional, organism-based
[9] = tested on: Colletotrichum gloeosporioides; assay: Antifungal activity against Colletotrichum gloeosporioides assessed as induction of morphological changes by measuring disappearance of organelles at 5 mg/L incubated for 24 hrs by TEM analysis; format: functional, organism-based
[10] = tested on: Colletotrichum gloeosporioides; assay: Antifungal activity against Colletotrichum gloeosporioides assessed as induction of morphological changes by measuring appearance of distorted hyphae at 5 mg/L measured after 48 hrs by SEM analysis; format: functional, organism-based
[11] = tested on: Colletotrichum gloeosporioides; assay: Antifungal activity against Colletotrichum gloeosporioides assessed as decrease in pyruvate decarboxylase encoding gene expression by RNA-seq analysis; format: functional, organism-based
[12] = tested on: Colletotrichum gloeosporioides; assay: Antifungal activity against Colletotrichum gloeosporioides assessed as increase in glycosyl hydrolase encoding gene expression by RNA-seq analysis; format: functional, organism-based
[13] = tested on: Colletotrichum gloeosporioides; assay: Antifungal activity against Colletotrichum gloeosporioides assessed as induction of morphological changes by measuring appearance of disorganized organelles at 5 mg/L incubated for 24 hrs by TEM analysis; format: functional, organism-based
[14] = tested on: Colletotrichum gloeosporioides; assay: Antifungal activity against Colletotrichum gloeosporioides assessed as increase in putative hydrolase encoding gene expression by RNA-seq analysis; format: functional, organism-based
[15] = tested on: Colletotrichum gloeosporioides; assay: Antifungal activity against Colletotrichum gloeosporioides assessed as increase in leucine aminopeptidase encoding gene expression by RNA-seq analysis; format: functional, organism-based
[16] = tested on: Colletotrichum gloeosporioides; assay: Antifungal activity against Colletotrichum gloeosporioides assessed as induction of morphological changes by measuring appearance of evident craters on surface at 5 mg/L measured after 48 hrs by SEM analysis; format: functional, organism-based
[17] = tested on: Colletotrichum gloeosporioides; assay: Antifungal activity against Colletotrichum gloeosporioides assessed as decrease in phosphoketolase encoding gene expression by RNA-seq analysis; format: functional, organism-based
[18] = tested on: Colletotrichum gloeosporioides; assay: Antifungal activity against Colletotrichum gloeosporioides assessed as fold decrease in pyruvate decarboxylase encoding gene expression by qRT-PCR analysis relative to control; format: functional
[19] = tested on: Colletotrichum gloeosporioides; assay: Antifungal activity against Colletotrichum gloeosporioides assessed as increase in lipase encoding gene expression by RNA-seq analysis; format: functional, organism-based
[20] = tested on: Colletotrichum gloeosporioides; assay: Antifungal activity against Colletotrichum gloeosporioides assessed as decrease in 3-carboxymuconate cyclase encoding gene expression by RNA-seq analysis; format: functional, organism-based
[21] = tested on: Colletotrichum gloeosporioides; assay: Antifungal activity against Colletotrichum gloeosporioides assessed as induction of morphological changes by measuring separation of plasma membrane from cell wall at 5 mg/L incubated for 24 hrs by TEM analysis; format: functional, organism-based
[22] = tested on: Colletotrichum gloeosporioides; assay: Antifungal activity against Colletotrichum gloeosporioides assessed as increase in beta-galactosidase encoding gene expression by RNA-seq analysis; format: functional, organism-based
[23] = tested on: Colletotrichum gloeosporioides; assay: Antifungal activity against Colletotrichum gloeosporioides assessed as induction of morphological changes by measuring appearance of twisted hyphae at 5 mg/L measured after 48 hrs by SEM analysis; format: functional, organism-based
[24] = tested on: Colletotrichum gloeosporioides; assay: Antifungal activity against Colletotrichum gloeosporioides assessed as induction of morphological changes by measuring increase in low density particles in cytoplasm at 5 mg/L incubated for 24 hrs by TEM analysis; format: functional, organism-based
[25] = tested on: Colletotrichum gloeosporioides; assay: Antifungal activity against Colletotrichum gloeosporioides assessed as fold decrease in phosphoketolase encoding gene expression by qRT-PCR analysis relative to control; format: functional
[26] = tested on: Colletotrichum gloeosporioides; assay: Antifungal activity against Colletotrichum gloeosporioides assessed as induction of morphological changes by measuring appearance of clustered/bundled hyphae at 5 mg/L measured after 48 hrs by SEM analysis; format: functional, organism-based
[27] = tested on: Colletotrichum gloeosporioides; assay: Antifungal activity against Colletotrichum gloeosporioides assessed as fold increase in lipase encoding gene expression by qRT-PCR analysis relative to control; format: functional
[28] = tested on: Colletotrichum gloeosporioides; assay: Antifungal activity against Colletotrichum gloeosporioides assessed as decrease in oxalate decarboxylase encoding gene expression by RNA-seq analysis; format: functional, organism-based
[29] = tested on: Colletotrichum gloeosporioides; assay: Antifungal activity against Colletotrichum gloeosporioides assessed as fold decrease in 3-carboxymuconate cyclase encoding gene expression by qRT-PCR analysis relative to control; format: functional
[30] = tested on: Colletotrichum gloeosporioides; assay: Antifungal activity against Colletotrichum gloeosporioides assessed as induction of morphological changes by measuring reduction in high density particles in cytoplasm at 5 mg/L incubated for 24 hrs by TEM analysis; format: functional, organism-based
[31] = tested on: Colletotrichum gloeosporioides; assay: Antifungal activity against Colletotrichum gloeosporioides assessed as fold increase in acetylcholinesterase encoding gene expression by qRT-PCR analysis relative to control; format: functional
[32] = tested on: Colletotrichum gloeosporioides; assay: Antifungal activity against Colletotrichum gloeosporioides assessed as fold increase in glycosyl hydrolase encoding gene expression by qRT-PCR analysis relative to control; format: functional
[33] = tested on: Colletotrichum gloeosporioides; assay: Antifungal activity against Colletotrichum gloeosporioides assessed as fold increase in beta-galactosidase encoding gene expression by qRT-PCR analysis relative to control; format: functional
[34] = tested on: Colletotrichum gloeosporioides; assay: Antifungal activity against Colletotrichum gloeosporioides assessed as fold decrease in oxalate decarboxylase encoding gene expression by qRT-PCR analysis relative to control; format: functional
[35] = tested on: Colletotrichum gloeosporioides; assay: Antifungal activity against Colletotrichum gloeosporioides assessed as induction of morphological changes by measuring degradation of plasma membrane at 5 mg/L incubated for 24 hrs by TEM analysis; format: functional, organism-based

With `CC1=C2C(=CO[C@H](C)[C@H]2C)C(O)=C(C(=O)O)C1=O` the Activity [1] was “Active”.

For `Cc1c(O)c(Cc2c(O)c3ccccc3n(C)c2=O)c(O)c2c1[C@H](C)[C@@H](C)OC2=O`, the LC50 [1] was 1.51 µg/mL (≈ 3.69 µM).

For Mancozeb, the Activity [2] was “Active”, the Activity [3] was “Active” and the Activity [1] was “Active”.

In the case of `Cn1c(=O)cc(O)c2ccccc21`, the Activity [1] is reported as “Active”.

`CC1=C2C(=CO[C@H](C)[C@H]2C)C(O)=C(Cc2c(O)c3ccccc3n(C)c2=O)C1=O` was tested, and the “fold change (FC)” value [4] was 14, the Activity [2] was “Active” and the “fold change (FC)” value [5] was 3.5. The Activity [6] was “Active”, the Activity [7] was “Active” and the Activity [8] was “Active”. For the same molecule, the Activity [9] was “Active”, the Activity [10] was “Active” and the Activity [11] was “Active”. For the same molecule, the Activity [12] was “Active”, the Activity [13] was “Active” and the Activity [14] was “Active”. For the same molecule, the Activity [15] was “Active”, the Activity [16] was “Active” and the Activity [17] was “Active”. The “fold change (FC)” value [18] was 215, the Activity [19] was “Active” and the Activity [20] was “Active”. For the same molecule, the Activity [21] was “Active”, the Activity [22] was “Active” and the Activity [23] was “Active”. For the same molecule, the Activity [24] was “Active”, the “fold change (FC)” value [25] was 1.47 and the Activity [26] was “Active”. The “fold change (FC)” value [27] was 8.9, the Activity [28] was “Active” and the “fold change (FC)” value [29] was 386. The Activity [30] was “Active”, the “fold change (FC)” value [31] was 6 and the “fold change (FC)” value [32] was 1.7. The “fold change (FC)” value [33] was 4.7, the “fold change (FC)” value [34] was 23.8 and the LC50 [1] was 0.02 µg/mL (≈ 0.0508 µM). The Activity [35] was “Active”.

For `Cc1c(O)c(C(=O)O)c(O)c2c1[C@H](C)[C@@H](C)OC2=O`, the Activity [1] was “Active”.
